According to patent publication US20250236617A1, “BICYCLIC TETRAHYDROTHIAZEPINE DERIVATIVES” (Hoffmann-La Roche Inc., priority 2022, published 2025):
pIC50: −log10 of the molar value.

Columns and labels:
Format in all cases: biochemical
[1] = target: DGKzeta (hDGKzeta(1-928)-N-His) (Homo sapiens (Human), UniProt Q13574); experiment: In vitro DGK inhibition assay, ADP-Glo (in house), DGKzeta; conditions: DLG liposomes, 50 μM ATP, 2 nM enzyme, 1 hour reaction
Description: DGK α and ζ kinases use ATP to phosphorylate the substrate 1,2-dilauroyl-sn-glycerol (DLG, incorporated in the liposomes). ATP is converted to ADP as a result of this enzymatic reaction.
(§1) After the kinase reaction, an ATP-depletion reagent is added to terminate the kinase reaction and deplete any remaining ATP, leaving only ADP. Second, a detection reagent is added to simultaneously convert ADP to ATP and allow the newly synthesized ATP to be converted to light using a coupled luciferase/luciferin reaction.
Purification of both enzymes was performed as previously described by Takahashi et al., PeerJ, 2018 (Takahashi, D.; Sakane, F. Expression and purification of human diacylglycerol kinase alpha from baculovirus-infected insect cells for structural studies. PeerJ 2018, 6, No. e5449).
A concentrated liposome solution was prepared in assay buffer without DTT and BSA: 2 mM of DLG in 21 mM of total liposome (2 mM DLG/8 mM PS/11 mM PC). The reaction mixtures contain the assay buffer with a final DLG concentration of 125 uM ATP concentrations of 25 μM (for DGKA assay) or 50 μM (for DGKZ assay). The reactions were started by addition of DGK α and ζ kinases at 4 nM and 2 nM final concentrations, respectively. After 1 hour reaction, the amount of ADP formed was detected with the ADP-Glo kinase assay (Promega) according to the manufacturer instructions. Compounds were added in 11-points dose response, starting at […], 1:3 dilutions, with a final DMSO concentration of 2%. The multidrop combi was used as a liquid handler and luminescence was read with 0.5 s by the envision reader (PE).

[2] = target: DGK α kinase (Homo sapiens (Human), UniProt P23743); experiment: In vitro DGK inhibition assay: ADP Glo run by Reaction Biology Corp., DGKalpha; conditions: 2 nM enzyme, 500 uM DLG, 10-dose duplicate
Description: (§2) DGK α and ζ kinases use ATP to phosphorylate the substrate 1,2-dilauroyl-sn-glycerol (DLG). ATP is converted to ADP as a result of this enzymatic reaction.
as §1
(§3) DGK α and ζ kinase ADP Glo assays were ran by Reaction Biology Corp., 1 Great Valley Parkway, Suite 2, Malvern, 19355, PA, USA. Information provided by the service provider are the following: DGK α and ζ kinases were used at 2 nM final concentration. Reactions were carried out at 50 µM ATP. 500 uM of the substrate DLG (Dilauroyl-sn-glycerol) was used.

[3] = target: DGK ζ kinase (Homo sapiens (Human), UniProt Q13574); experiment: In vitro DGK inhibition assay: ADP Glo run by Reaction Biology Corp., DGKzeta; conditions: 2 nM enzyme, 500 uM DLG, 10-dose duplicate
Description: as §2, §1, §3

Sequence of DGKzeta (hDGKzeta(1-928)-N-His) (Q13574 whole entry): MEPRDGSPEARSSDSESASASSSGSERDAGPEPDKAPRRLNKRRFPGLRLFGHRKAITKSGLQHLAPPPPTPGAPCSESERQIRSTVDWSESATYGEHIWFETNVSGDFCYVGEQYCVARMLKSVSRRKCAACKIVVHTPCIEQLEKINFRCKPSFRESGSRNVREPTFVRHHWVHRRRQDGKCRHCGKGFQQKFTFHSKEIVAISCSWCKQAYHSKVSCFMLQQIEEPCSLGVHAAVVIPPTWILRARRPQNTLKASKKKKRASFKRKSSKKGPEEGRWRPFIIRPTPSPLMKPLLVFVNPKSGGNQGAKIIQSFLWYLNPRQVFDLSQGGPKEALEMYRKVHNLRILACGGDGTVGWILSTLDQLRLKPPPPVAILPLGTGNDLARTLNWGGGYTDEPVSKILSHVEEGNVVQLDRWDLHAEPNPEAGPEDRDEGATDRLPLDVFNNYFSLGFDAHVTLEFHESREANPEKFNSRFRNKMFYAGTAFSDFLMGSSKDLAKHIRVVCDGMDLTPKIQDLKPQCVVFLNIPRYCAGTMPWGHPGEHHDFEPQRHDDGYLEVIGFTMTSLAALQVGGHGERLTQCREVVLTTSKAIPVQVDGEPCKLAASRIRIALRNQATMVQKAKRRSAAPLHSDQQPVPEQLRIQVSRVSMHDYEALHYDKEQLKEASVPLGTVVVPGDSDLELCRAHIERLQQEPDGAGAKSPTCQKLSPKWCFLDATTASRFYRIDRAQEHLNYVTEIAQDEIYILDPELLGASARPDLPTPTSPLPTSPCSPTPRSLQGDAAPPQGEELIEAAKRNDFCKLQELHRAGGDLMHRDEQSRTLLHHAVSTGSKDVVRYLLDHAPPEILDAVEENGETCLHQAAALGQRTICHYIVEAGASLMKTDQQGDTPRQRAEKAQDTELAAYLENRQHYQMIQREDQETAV
Sequence of DGK α kinase (P23743 whole entry): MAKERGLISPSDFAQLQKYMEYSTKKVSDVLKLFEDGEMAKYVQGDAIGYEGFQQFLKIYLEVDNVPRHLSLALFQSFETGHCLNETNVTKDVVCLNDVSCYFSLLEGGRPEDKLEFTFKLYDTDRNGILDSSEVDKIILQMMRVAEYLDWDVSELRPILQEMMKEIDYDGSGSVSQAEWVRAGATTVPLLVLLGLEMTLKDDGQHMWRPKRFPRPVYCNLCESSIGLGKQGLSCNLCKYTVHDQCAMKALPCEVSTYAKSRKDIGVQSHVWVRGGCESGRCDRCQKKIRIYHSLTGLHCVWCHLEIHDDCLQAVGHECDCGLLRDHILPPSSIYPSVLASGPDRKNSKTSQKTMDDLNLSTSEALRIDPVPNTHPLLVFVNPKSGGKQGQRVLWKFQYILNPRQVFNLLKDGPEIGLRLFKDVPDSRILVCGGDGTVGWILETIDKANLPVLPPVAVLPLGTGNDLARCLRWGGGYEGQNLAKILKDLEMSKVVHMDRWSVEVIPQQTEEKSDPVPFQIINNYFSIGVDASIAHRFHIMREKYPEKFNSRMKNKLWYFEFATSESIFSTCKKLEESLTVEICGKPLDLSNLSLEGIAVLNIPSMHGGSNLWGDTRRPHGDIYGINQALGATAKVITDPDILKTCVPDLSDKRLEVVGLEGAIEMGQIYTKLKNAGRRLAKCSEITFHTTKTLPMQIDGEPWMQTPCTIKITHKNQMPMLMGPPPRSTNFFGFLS
Sequence of DGK ζ kinase (Q13574 whole entry): as the sequence (Q13574 whole entry) above

SMILES	pIC50 [1]	pIC50 [2]	pIC50 [3]
COc1ccc(-c2ccc(CN3C(=O)[C@@H](N)CS(=O)(=O)c4cc(F)c(-c5cnc(C)c(C)c5)cc43)cc2)cc1 [Example 28, (3R)-3-amino-7-(5,6-dimethyl-3-pyridyl)-8-fluoro-5-[[4-(4-methoxyphenyl)phenyl]methyl]-1,1-dioxo-2,3-dihydro-1λ6,5-benzothiazepin-4-one]	5.00		
CC(C)(C#N)c1cncc(-c2cc3c(cc2F)S(=O)(=O)C[C@H](N)C(=O)N3Cc2ccc(-c3noc(C(F)(F)F)n3)cc2)c1 [Example 23, 2-[5-[(3R)-3-amino-8-fluoro-1,1,4-triketo-5-[4-[5-(trifluoromethyl)-1,2,4-oxadiazol-3-yl]benzyl]-2,3-dihydro-1λ6,5-benzothiazepin-7-yl]-3-pyridyl]-2-methyl-propionitrile]	5.01	6.43	6.51
CC(C)(c1cncc(-c2cc3c(cc2F)S(=O)(=O)C[C@H](N)C(=O)N3Cc2ccc(-c3noc(C(F)(F)F)n3)cc2)c1)S(C)(=O)=O [Example 25, (3R)-3-amino-8-fluoro-1,1-diketo-7-[5-(1-mesyl-1-methyl-ethyl)-3-pyridyl]-5-[4-[5-(trifluoromethyl)-1,2,4-oxadiazol-3-yl]benzyl]-2,3-dihydro-1λ6,5-benzothiazepin-4-one]	4.37		
